Reference: patent US7498336B2, “Deazaflavin compounds and methods of use thereof” (The United States of America as represented by the …, priority 2003, dated 2009)

Assays:
[1] = system: E1A-transformed RPE cells; experiment: Apoptosis in E1A-transformed RPE cells; type: cell-based, human; settings: FIG. 4 left
Source text: Cell-based assays include model systems where primary human epithelial cells (“normal cells”) are compared to the same cells expressing the adenovirus E1A oncogene (“transformed cells”). Activation of p53 was not toxic to normal cells, but activation of p53 in transformed cells induces p53-mediated apoptosis. High concentrations of wild type (wt) p53 protein can induce apoptosis in a variety of different tumor cells. Potential inhibitors of MDM2 would regulate the stability and function of p53 and MDM2. Preferably the assays measure number of cells undergoing apoptosis due to MDM2 induced p53 degradation in tumor cells in the presence or absence of candidate compounds as compared to normal cells in the presence or absence of candidate compounds. An increase in the number of these cells undergoing apoptosis in the presence of candidate compounds in tumor cells, as compared to normal untreated cells is indicative of a potential anti-tumor compound. […]
Apoptosis and cell death were determined by FACS analysis of sub-G1 nuclei or counting trypan blue-positive cells under microscope. Caspase activity was measured using fluorogenic substrate Ac-DEVD-AFC and CytoFluor multi-well plate reader (PerSeptive Biosystems). […]

[2] = system: Normal human fibroblast MRC-5; experiment: Cell based assay for accumulation of MDM2 and p53 (immunoblot); settings: MRC-5 cells, 50 μM, 8 hours
Method: Methods: Normal human fibroblast MRC-5 were chosen to determine whether the compounds from the high throughput screening can inhibit the E3 activity of Mdm2, i.e. stabilizing MDM2 and p53 in vivo. After being seeded in 12-well tissue culture cluster overnight, the cells were treated with 50 μM of the compounds for 8 hours. They were harvested with trypsin-EDTA, washed with PBS, and lysed with RIPA buffer. Following removal of insoluble pellet by centrifugation for 20 minutes at 10000 rpm, the lysate was separated on 4-20% gradient SDS-polyacrylamide gel and transferred onto nitrocellulose membrane. The membrane was then blotted with anti-p53 antibody (DO-1), anti-MDM2 antibodies (Ab-1 and Ab-2), anti-p27 (Santa Cruz), anti-Nedd4, and anti-p21Waf1 antibody. After extensive washing with PBS containing 0.5% Triton X-100, it was incubated with HRP-labeled donkey anti-mouse antibody and visualized using enhanced chemiluminescence.

Q: How did the apoptosis [1] turn out when `COc1cccc2c1C(=O)c1c(O)c3c(c(O)c1C2=O)C[C@@](O)(C(=O)CO)C[C@@H]3O[C@H]1C[C@H](N)[C@H](O)[C@H](C)O1` [adriamycin, reference compound] was run?
A: markedly increased apoptosis

Q: What about the p53 level [2] of the same compound?
A: increased only p53
